≈ marks a conversion by molar mass, not a printed value.
Key:
[1] = test system: E. faecalis; settings: ATCC 29212, control standard
[2] = test system: bacterial infection; settings: following a 10 day course of treatment with a pharmaceutical formulation
Excerpt: A patient suffering from a bacterial infection is identified.

[3] = test system: P. aeruginosa; settings: P. aeruginosa ATCC 27853, control standard
Excerpt: (§1) They are expressed as milligrams of substance per liter of culture medium.

[4] = test system: E. coli; settings: E. coli ATCC 25922, control standard
Excerpt: as §1

[5] = test system: S. aureus; settings: S. aureus ATCC29213, control standard
Excerpt: as §1

COC1/C=C/OC2(C)Oc3c(C)c(O)c4c([O-])c(c5c([nH]c6cc(C)cc[n+]65)c4c3C2=O)NC(=O)/C(CO)=C\C=C\C(C)C(O)C(C)C(O)C(C)C(OC(C)=O)C1C (centres unmarked) [Example 2]
M.I.C. [1]: 64 mg/mL | level of bacterial infection in the patient [2]: reduced | MIC [3]: 32 µg/mL (≈ 39.9 µM) | MIC [4]: 32 µg/mL (≈ 39.9 µM) | M.I.C. [5]: 0.5 mg/mL
